Experimental data published in article PMC10312992 (ACS Omega, 2023).

Assays:
α-glucosidase = α-glucosidase inhibition assay; type: biochemical; settings: at 0.5 mM; mean ± S.E.M., n = 3
[1] = test system: erythrocytes (heparinized bovine blood); experiment: hemolytic activity; type: cell-based; settings: 35 min at 37 °C, 10^8 cells/mL; PBS negative control 2.45 ± 0.01%

| α-glucosidase (%) inhibition (α-glucosidase) [%] | Compound | hemolysis (%) [1] [%] |
| --- | --- | --- |
| 97.56 ± 0.57 | COC(=O)c1ccccc1NC(=O)C(C)Sc1nnc(Cc2c[nH]c3ccccc23)o1 (stereo not shown) [8l, N-((2-Methoxycarbonyl)phenyl)-2-({5-((1H-indol-3-yl)methyl)-1,3,4-oxadiazol-2-yl}sulfanyl)propanamide] | 8.16 ± 0.02 |
| 98.21 ± 0.31 | CCc1ccccc1NC(=O)C(C)Sc1nnc(Cc2c[nH]c3ccccc23)o1 (stereo not shown) [8h, N-(2-Ethylphenyl)-2-({5-((1H-indol-3-yl)methyl)-1,3,4-oxadiazol-2-yl}sulfanyl)propanmide] | 0.83 ± 0.01 |
| 93.38 ± 0.38 | CC(Sc1nnc(Cc2c[nH]c3ccccc23)o1)C(=O)NCCc1ccccc1 (stereo not shown) [8d, N-(2-Phenethyl)-2-({5-((1H-indol-3-yl)methyl)-1,3,4-oxadiazol-2-yl}sulfanyl)propanamide] | 0.05 ± 0.01 |
| 92.23 ± 0.14 | C[C@H]1O[C@H](O[C@H]2[C@H](O)[C@@H](O)[C@@H](O[C@H]3[C@H](O)[C@@H](O)C(O)O[C@@H]3CO)O[C@@H]2CO)[C@H](O)[C@@H](O)[C@@H]1N[C@H]1C=C(CO)[C@@H](O)[C@H](O)[C@H]1O (stereo partly shown) [acarbose, reference compound] | – |
